Assay results reported in PMC5515969, “Effects of 31 FDA approved small-molecule kinase inhibitors on isolated rat liver mitochondria” (Archives of Toxicology, 2016).

Assays:
[1] = tested on: isolated rat liver mitochondria; test: Mitochondrial oxygen consumption (glutamate/malate or succinate driven, state 4 and state 3); type: biochemical; conditions: DMSO treated samples set as 1; as to State 3 respiration driven by succinate at 10XCmax: key: 0 indicates that the drug had no effects (negative); as to State 3 respiration driven by succinate at 1XCmax: key: 0 indicates that the drug had no effects (negative)
Method in brief: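 Oxygen uptake on glutamate/malate or on succinate defined state 4; ADP added 3 min later gave state 3. Mitochondria isolated from rat liver by differential centrifugation, adjusted to 1 mg/ml and pretreated 5 min with inhibitor (0.1% DMSO final). Values relative to DMSO control, set to 1.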

[2] = tested on: RCC I; test: RCC I activity in submitochondrial particles; type: biochemical, rat; design: key to RCC I at 10XCmax / RCC I at 100XCmax / RCC I at 50XCmax / RCC I at 30XCmax / RCC I at 20XCmax: activity relative to DMSO-treated controls (control set as 1 = 100%); conditions: 10XCmax; DMSO treated samples set as 1
Method in brief: (§1)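 Rat submitochondrial particles (1 mg/ml) were treated with test compounds for 15 min. RCC IV, like RCC III, was monitored at 550 nm every 10 s for 2 min, and RCC I/V at 340 nm each minute for 6 min. DMSO samples defined unit activity.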

[3] = biological target: T1, RCC II (Rattus norvegicus, UniProt P21913+Q641Z9+Q6PCT8+Q920L2); test: RCC II activity in submitochondrial particles; type: biochemical; design: key: activity relative to DMSO-treated controls (control set as 1 = 100%); conditions: DMSO treated samples set as 1
T1 construct: Submitochondrial particles were prepared by subjecting the intact mitochondria to three successive freeze–thaw cycles; from tissue; host or cells: rat liver mitochondria, used as submitochondrial particles
T1 sequence (Q920L2 35-656): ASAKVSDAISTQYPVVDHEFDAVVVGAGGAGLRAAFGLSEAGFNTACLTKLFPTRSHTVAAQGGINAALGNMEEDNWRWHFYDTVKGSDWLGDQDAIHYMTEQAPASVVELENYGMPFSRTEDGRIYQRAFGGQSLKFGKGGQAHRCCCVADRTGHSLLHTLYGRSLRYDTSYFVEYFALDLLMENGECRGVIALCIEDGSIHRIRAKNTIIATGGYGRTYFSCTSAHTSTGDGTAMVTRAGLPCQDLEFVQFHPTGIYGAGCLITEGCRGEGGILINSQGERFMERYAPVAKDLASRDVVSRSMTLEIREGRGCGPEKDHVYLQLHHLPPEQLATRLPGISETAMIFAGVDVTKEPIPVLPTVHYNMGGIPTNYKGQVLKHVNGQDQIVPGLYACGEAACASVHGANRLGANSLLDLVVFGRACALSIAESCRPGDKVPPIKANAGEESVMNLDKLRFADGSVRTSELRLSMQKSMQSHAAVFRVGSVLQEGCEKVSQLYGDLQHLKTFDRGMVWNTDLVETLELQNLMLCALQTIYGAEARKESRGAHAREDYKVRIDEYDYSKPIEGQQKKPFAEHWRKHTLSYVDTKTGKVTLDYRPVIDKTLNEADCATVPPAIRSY
T1 sequence (P21913 31-282): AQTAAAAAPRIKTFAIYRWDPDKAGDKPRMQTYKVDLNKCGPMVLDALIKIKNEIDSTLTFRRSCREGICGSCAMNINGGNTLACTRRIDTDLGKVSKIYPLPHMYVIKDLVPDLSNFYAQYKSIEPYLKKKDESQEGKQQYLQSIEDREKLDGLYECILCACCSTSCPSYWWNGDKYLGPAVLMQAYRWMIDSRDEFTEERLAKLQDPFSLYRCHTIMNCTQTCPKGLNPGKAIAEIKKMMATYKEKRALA
T1 sequence (Q641Z9 1-169): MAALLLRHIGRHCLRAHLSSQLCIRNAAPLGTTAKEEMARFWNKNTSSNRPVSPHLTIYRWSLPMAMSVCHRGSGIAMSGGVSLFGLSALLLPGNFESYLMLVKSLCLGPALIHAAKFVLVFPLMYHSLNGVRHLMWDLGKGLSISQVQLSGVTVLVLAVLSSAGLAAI
T1 sequence (Q6PCT8 57-159): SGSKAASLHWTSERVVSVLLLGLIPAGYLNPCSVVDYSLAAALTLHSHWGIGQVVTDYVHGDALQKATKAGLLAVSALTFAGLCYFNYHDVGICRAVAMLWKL
Method in brief: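 Activity relative to DMSO (set as 1) after 15-min exposure of submitochondrial particles (1 mg/ml) to compound. RCC I is defined as rotenone-sensitive activity and RCC II is followed at 600 nm over 6 min.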

[4] = tested on: RCC III; test: RCC III activity in submitochondrial particles; type: biochemical, rat; design: key to RCC III at 100XCmax: activity relative to DMSO-treated controls (control set as 1 = 100%); conditions: 100XCmax
Method in brief: as §1

[5] = tested on: RCC IV; test: RCC IV activity in submitochondrial particles; type: biochemical, rat; design: key to RCC IV at 50XCmax / RCC IV at 100XCmax: activity relative to DMSO-treated controls (control set as 1 = 100%); conditions: 50XCmax; DMSO treated samples set as 1; in %
Method in brief: as §1

[6] = tested on: RCC V; test: RCC V activity in submitochondrial particles; type: biochemical, rat; conditions: DMSO treated samples set as 1; as to RCC V at 5XCmax: key: 0 indicates that the drug had no effects (negative)
Method in brief: as §1

[7] = tested on: isolated rat liver mitochondria; test: Mitochondrial inner membrane potential (MMP), Rhodamine 123; type: biochemical; conditions: difference in signal between KI and DMSO treated samples at the end of experiments
Source text: Fig. 3 KI effects on mitochondrial inner membrane potential (MMP). […] In a, c, data are means and standard derivations from three separate experiments. *p < 0.05 as compared to DMSO-treated samples at the end of experiments. In b, data are means of two independent experiments

[8] = tested on: isolated rat liver mitochondria; test: Mitochondrial swelling (absorbance at 535 nm); type: biochemical; conditions: difference in signal between KI and DMSO treated samples at the end of experiments; as to Swelling 5XCmax: key: 0 indicates that the drug had no effects (negative)
[9] = tested on: isolated rat liver mitochondria; test: Mitochondrial toxicity, any endpoint, intact mitochondria and submitochondrial particles; type: biochemical; conditions: any endpoint
Procedure: Rats were anesthetized by an intraperitoneal injection of Nembutal and the liver perfused with PBS to remove the blood. The liver was then cut into small pieces and homogenized using a Dounce type homogenizer in the ice-cold isolation buffer (IB) containing 200 mM sucrose, 10 mM Tris-MOPS, 1 mM EGTA (pH 7.4). The sample was then centrifuged at 600g for 10 min. The supernatant was further centrifuged at 7500g for 10 min, and the pellets was washed once with the IB and centrifuged again at 7500g for 10 min to collect mitochondria. […] Before drug treatment, the protein concentration was adjusted to 1 mg/ml using appropriate buffer. […] Briefly, mitochondrial and cytosolic fractions from four different preparations using four rats were diluted using the Laemmli protein loading buffer and subject to SDS-PAGE with 4–20% gradient gels. The proteins were blotted to PVDF membranes and detected using antibodies against GAPDH, ATP5A, UQCRC2, SDHB, and NDUFB8.
The aliquoted stock solutions were kept for less than one month and each tube was used only once. The KIs were added to the mitochondria at 1:1000 dilutions. […] The Cmax data were from clinical trials which used FDA recommend dosages, route of administration, and duration. […] The final concentration of DMSO for drug treatment was always 0.1%, and control treatments were 0.1% DMSO.

[10] = tested on: isolated rat liver mitochondria; conditions: positive control alamethicin treated samples
[11] = tested on: isolated rat liver mitochondria; test: Mitochondrial ROS production (CM-H2DCFDA); conditions: DMSO treated samples set as 1

C=CC(=O)N1CCC[C@@H](n2nc(-c3ccc(Oc4ccccc4)cc3)c3c(N)ncnc32)C1 [Ibrutinib]
State 3 respiration driven by succinate at 1XCmax ([1]; 1XCmax): 0
State 4 respiration driven by succinate at 1XCmax ([1]; 1XCmax): 0
State 3 respiration driven by succinate at 2.5XCmax ([1]; 2.5XCmax): 0
State 4 respiration driven by succinate at 2.5XCmax ([1]; 2.5XCmax): 0
State 3 respiration driven by succinate at 5XCmax ([1]; 5XCmax): 0
State 4 respiration driven by succinate at 5XCmax ([1]; 5XCmax): 0
State 3 respiration driven by succinate at 10XCmax ([1]; 10XCmax): 0
State 4 respiration driven by succinate at 10XCmax ([1]; 10XCmax): 0
State 3 respiration driven by succinate at 20XCmax ([1]; 20XCmax): 0
State 4 respiration driven by succinate at 20XCmax ([1]; 20XCmax): 0
State 3 respiration driven by succinate at 30XCmax ([1]; 30XCmax): 0
State 4 respiration driven by succinate at 30XCmax ([1]; 30XCmax): 0
State 3 respiration driven by succinate at 50XCmax ([1]; 50XCmax): 0
State 4 respiration driven by succinate at 50XCmax ([1]; 50XCmax): 0
State 3 respiration driven by succinate at 100XCmax ([1]; 100XCmax): 0
State 4 respiration driven by succinate at 100XCmax ([1]; 100XCmax): 0
RCC I at 10XCmax [2]: 0
RCC II at 1.0XCmax ([3]; 1.0XCmax): 0
RCC II at 2.5XCmax ([3]; 2.5XCmax): 0
RCC II at 5XCmax ([3]; 5XCmax): 0
RCC II at 10XCmax ([3]; 10XCmax): 0
RCC II at 20XCmax ([3]; 20XCmax): 0
RCC II at 30XCmax ([3]; 30XCmax): 0
RCC II at 50XCmax ([3]; 50XCmax): 0
RCC II at 100XCmax ([3]; 100XCmax): 0
RCC III at 100XCmax [4]: 0
RCC IV at 50XCmax [5]: 0
RCC V at 5XCmax ([6]; 5XCmax): 0
RCC V at 50XCmax ([6]; 50XCmax): 0
MMP measured by Rhodamine 123 at 1XCmax ([7]; 1XCmax): 0
MMP measured by Rhodamine 123 at 2.5XCmax ([7]; 2.5XCmax): 0
MMP measured by Rhodamine 123 at 5XCmax ([7]; 5XCmax): 0
MMP measured by Rhodamine 123 at 10XCmax ([7]; 10XCmax): 0
MMP measured by Rhodamine 123 at 20XCmax ([7]; 20XCmax): 0
MMP measured by Rhodamine 123 at 30XCmax ([7]; 30XCmax): 0
MMP measured by Rhodamine 123 at 50XCmax ([7]; 50XCmax): 0
MMP measured by Rhodamine 123 at 100XCmax ([7]; 100XCmax): 0
Swelling 1XCmax ([8]; 1XCmax): 0
Swelling 2.5XCmax ([8]; 2.5XCmax): 0
Swelling 5XCmax ([8]; 5XCmax): 0
Swelling 10XCmax ([8]; 10XCmax): 0
Swelling 20XCmax ([8]; 20XCmax): 0
Swelling 30XCmax ([8]; 30XCmax): 0
Swelling 50XCmax ([8]; 50XCmax): 0
Swelling 100XCmax ([8]; 100XCmax): 0
lowest concentration causing significant mitochondrial toxicity [9]: 50 fold Cmax
Cytochrome c release 1XCmax ([10]; 1XCmax): 0
Cytochrome c release 2.5XCmax ([10]; 2.5XCmax): 0
Cytochrome c release 5XCmax ([10]; 5XCmax): 0
Cytochrome c release 10XCmax ([10]; 10XCmax): 0
Cytochrome c release 20XCmax ([10]; 20XCmax): 0
Cytochrome c release 30XCmax ([10]; 30XCmax): 0
Cytochrome c release 50XCmax ([10]; 50XCmax): 0
Cytochrome c release 100XCmax ([10]; 100XCmax): 0
ROS measured by CM-H2DCFDA at 1XCmax ([11]; 1XCmax): 0
ROS measured by CM-H2DCFDA at 2.5XCmax ([11]; 2.5XCmax): 0
ROS measured by CM-H2DCFDA at 5XCmax ([11]; 5XCmax): 0
ROS measured by CM-H2DCFDA at 10XCmax ([11]; 10XCmax): 0
ROS measured by CM-H2DCFDA at 20XCmax ([11]; 20XCmax): 0
ROS measured by CM-H2DCFDA at 30XCmax ([11]; 30XCmax): 0
ROS measured by CM-H2DCFDA at 50XCmax ([11]; 50XCmax): 0
ROS measured by CM-H2DCFDA at 100XCmax ([11]; 100XCmax): 0
